Experimental data as given in patent US10588317B2, “Isoxazoline-substituted benzamides and analogues as insecticides” (priority 2015, dated 2020).

Experiments:
Format in all cases: in vivo
[1] = tested on: Diabrotica balteata; test: Diabrotica balteata (corn root worm), sprayed maize sprouts; settings: 96 h, application rate 200 ppm, L2 larvae, 4 days after infestation, read-out: effect in at least one of the two categories (mortality or growth inhibition)
Procedure, shortened: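 Read-out at 4 days post-infestation: mortality and growth inhibition relative to untreated samples. Test solutions (200 ppm, from DMSO stocks) were sprayed onto agar-held maize sprouts, which after drying received 6–10 L2 larvae per well.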

[2] = tested on: Euschistus heros; test: Euschistus heros (neotropical brown stink bug), sprayed soybean leaves; settings: 120 h, application rate 200 ppm, N2 nymphs, 5 days after infestation, read-out: effect in at least one of the two categories (mortality or growth inhibition)
Procedure, shortened: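 Scored 5 days post-infestation versus untreated controls, for both mortality and growth inhibition: N2 nymphs placed on agar-mounted soybean leaves previously sprayed at 200 ppm with aqueous test solutions from DMSO stocks and left to dry.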

[3] = tested on: Myzus persicae; test: Myzus persicae (green peach aphid): feeding/contact activity; settings: 144 h, application rate 200 ppm, aphid population of mixed ages, 6 days after infestation, read-out: mortality
Description: (§1) Sunflower leaf discs were placed onto agar in a 24-well microtiter plate and sprayed with aqueous test solutions prepared from 10'000 ppm DMSO stock solutions. After drying, the leaf discs were infested with an aphid population of mixed ages. The samples were assessed for mortality 6 days after infestation.

[4] = tested on: Plutella xylostella; test: Plutella xylostella (diamond back moth), artificial diet; settings: 120 h, application rate 200 ppm, L2 larvae, 5 days after infestation, read-out: effect in at least one of the two categories (mortality or growth inhibition)
Procedure, shortened: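 L2 larvae (10-15 per well) fed on compound-treated, dried artificial diet; test solutions diluted in water from 10'000 ppm DMSO stocks. Readout 5 days post-infestation as mortality or growth inhibition versus untreated diet, with at least 80% effect at 200 ppm as threshold.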

[5] = tested on: Spodoptera littoralis; test: Spodoptera littoralis (Egyptian cotton leaf worm), sprayed cotton leaf discs; settings: foliar, 72 h, application rate 200 ppm, L1 larvae, 3 days after infestation, read-out: control (mortality, anti-feeding effect, growth inhibition)
Procedure, shortened: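 Five first-instar larvae placed on dried cotton leaf discs (on agar) previously sprayed with aqueous dilutions of 10'000 ppm DMSO stocks. Scored at 3 days against untreated discs for mortality, feeding inhibition and growth inhibition; any category above untreated counts as control.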

[6] = tested on: Spodoptera littoralis; test: Spodoptera littoralis (Egyptian cotton leaf worm), uptake by lettuce roots from agar; settings: 144 h, read-out: effect in at least one of the three categories (mortality, anti-feeding, or growth inhibition);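 note: 12.5 ppm test rate in agar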
Procedure, shortened: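 Systemic test: Spodoptera eggs placed on lettuce leaves from seedlings raised 7 days on agar containing the compound (diluted from 10'000 ppm DMSO stock). Six days after infestation, larvae scored against untreated controls for mortality, feeding deterrence and growth inhibition.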

[7] = tested on: Tetranychus urticae; test: Tetranychus urticae (two-spotted spider mite): feeding/contact activity; settings: 192 h, application rate 200 ppm, mixed population (mobile stages), 8 days after infestation, read-out: mortality
Description: Bean leaf discs on agar in 24-well microtiter plates were sprayed with aqueous test solutions prepared from 10'000 ppm DMSO stock solutions. After drying the leaf discs were infested with a mite population of mixed ages. The samples were assessed for mortality on mixed population (mobile stages) 8 days after infestation.

[8] = tested on: Thrips tabaci; test: Thrips tabaci (onion thrips): feeding/contact activity; settings: 144 h, application rate 200 ppm, Thrips population of mixed ages, 6 days after infestation, read-out: mortality
Description: as §1, with “on” for “onto”, “in” for “in a”, “plates” for “plate”, “drying” for “drying,”, “a Thrips” for “an aphid”

Cc1cc(C2=NO[C@@](c3cc(Cl)c(F)c(Cl)c3)(C(F)(F)F)C2)ccc1C(=O)N[C@@H]1CON(S(C)(=O)=O)C1 (single isomer, unassigned) [Compound A12]
≥ 80%: percent effect (mortality or growth inhibition) at 200 ppm [1] | percent effect (mortality or growth inhibition) at 200 ppm [2] | mortality at 200 ppm [3] | percent effect (mortality or growth inhibition) at 200 ppm [4] | mortality at 200 ppm [5] | percent control (mortality, anti-feedant effect or growth inhibition) at 12.5 ppm [6] | mortality at 200 ppm [7] | mortality at 200 ppm [8]

Cc1cc(C2=NO[C@@](c3cc(Cl)c(F)c(Cl)c3)(C(F)(F)F)C2)ccc1C(=O)N[C@H]1CON(S(C)(=O)=O)C1 (single isomer, unassigned) [Compound A13]
≥ 80%: percent effect (mortality or growth inhibition) at 200 ppm [1] | percent effect (mortality or growth inhibition) at 200 ppm [2] | mortality at 200 ppm [3] | percent effect (mortality or growth inhibition) at 200 ppm [4] | mortality at 200 ppm [5] | percent control (mortality, anti-feedant effect or growth inhibition) at 12.5 ppm [6] | mortality at 200 ppm [7] | mortality at 200 ppm [8]

Cc1cc(C2=NO[C@@](c3cc(Cl)c(F)c(Cl)c3)(C(F)(F)F)C2)ccc1C(=O)N[C@@H]1CON(S(=O)(=O)N(C)C)C1 (single isomer, unassigned) [Compound A34]
≥ 80%: percent effect (mortality or growth inhibition) at 200 ppm [1] | percent effect (mortality or growth inhibition) at 200 ppm [2] | mortality at 200 ppm [3] | percent effect (mortality or growth inhibition) at 200 ppm [4] | mortality at 200 ppm [5] | percent control (mortality, anti-feedant effect or growth inhibition) at 12.5 ppm [6] | mortality at 200 ppm [7] | mortality at 200 ppm [8]

Cc1cc(C2=NO[C@@](c3cc(Cl)c(Cl)c(Cl)c3)(C(F)(F)F)C2)ccc1C(=O)N[C@@H]1CON(S(=O)(=O)N(C)C)C1 (single isomer, unassigned) [Compound A112]
≥ 80%: percent effect (mortality or growth inhibition) at 200 ppm [1] | percent effect (mortality or growth inhibition) at 200 ppm [2] | mortality at 200 ppm [3] | percent effect (mortality or growth inhibition) at 200 ppm [4] | mortality at 200 ppm [5] | percent control (mortality, anti-feedant effect or growth inhibition) at 12.5 ppm [6] | mortality at 200 ppm [7] | mortality at 200 ppm [8]

Cc1cc(C2=NO[C@@](c3cc(Cl)c(F)c(Cl)c3)(C(F)(F)F)C2)ccc1C(=O)N[C@H]1CON(S(=O)(=O)N(C)C)C1 (single isomer, unassigned) [Compound A143]
≥ 80%: percent effect (mortality or growth inhibition) at 200 ppm [1] | percent effect (mortality or growth inhibition) at 200 ppm [2] | mortality at 200 ppm [3] | percent effect (mortality or growth inhibition) at 200 ppm [4] | mortality at 200 ppm [5] | percent control (mortality, anti-feedant effect or growth inhibition) at 12.5 ppm [6] | mortality at 200 ppm [7] | mortality at 200 ppm [8]

Cc1cc(C2=NO[C@@](c3cc(Cl)c(F)c(Cl)c3)(C(F)(F)F)C2)ccc1C(=O)NC1CON(S(=O)(=O)CCl)C1 (stereo partly drawn) [Compound A5, N-[2-(chloromethylsulfonyl)isoxazolidin-4-yl]-4-[(5S)-5-(3,5-dichloro-4-fluoro-phenyl)-5-(trifluoromethyl)-4H-isoxazol-3-yl]-2-methyl-benzamide]
≥ 80%: percent effect (mortality or growth inhibition) at 200 ppm [1] | percent effect (mortality or growth inhibition) at 200 ppm [2] | mortality at 200 ppm [3] | percent effect (mortality or growth inhibition) at 200 ppm [4] | mortality at 200 ppm [5] | percent control (mortality, anti-feedant effect or growth inhibition) at 12.5 ppm [6] | mortality at 200 ppm [7] | mortality at 200 ppm [8]

Cc1cc(C2=NO[C@@](c3cc(Cl)c(F)c(Cl)c3)(C(F)(F)F)C2)ccc1C(=O)NC1CON(S(=O)(=O)C2CC2)C1 (stereo partly shown) [Compound A6]
≥ 80%: percent effect (mortality or growth inhibition) at 200 ppm [1] | percent effect (mortality or growth inhibition) at 200 ppm [2] | mortality at 200 ppm [3] | percent effect (mortality or growth inhibition) at 200 ppm [4] | mortality at 200 ppm [5] | percent control (mortality, anti-feedant effect or growth inhibition) at 12.5 ppm [6] | mortality at 200 ppm [7] | mortality at 200 ppm [8]

Cc1cc(C2=NO[C@@](c3cc(Cl)c(F)c(Cl)c3)(C(F)(F)F)C2)ccc1C(=O)NC1CON(S(=O)(=O)N(C)C)C1 (stereo partly shown) [Compound A10]
≥ 80%: percent effect (mortality or growth inhibition) at 200 ppm [1] | percent effect (mortality or growth inhibition) at 200 ppm [2] | mortality at 200 ppm [3] | percent effect (mortality or growth inhibition) at 200 ppm [4] | mortality at 200 ppm [5] | percent control (mortality, anti-feedant effect or growth inhibition) at 12.5 ppm [6] | mortality at 200 ppm [7] | mortality at 200 ppm [8]

Cc1cc(C2=NO[C@@](c3cc(Cl)c(F)c(Cl)c3)(C(F)(F)F)C2)ccc1C(=O)NC1CON(S(=O)(=O)CCC(F)(F)F)C1 (stereo partly shown) [Compound A11]
≥ 80%: percent effect (mortality or growth inhibition) at 200 ppm [1] | percent effect (mortality or growth inhibition) at 200 ppm [2] | mortality at 200 ppm [3] | percent effect (mortality or growth inhibition) at 200 ppm [4] | mortality at 200 ppm [5] | percent control (mortality, anti-feedant effect or growth inhibition) at 12.5 ppm [6] | mortality at 200 ppm [7] | mortality at 200 ppm [8]

CS(=O)(=O)N1CC(NC(=O)c2ccc(C3=NO[C@@](c4cc(Cl)c(F)c(Cl)c4)(C(F)(F)F)C3)cc2Cl)CO1 (stereo partly drawn) [Compound A19, 2-chloro-4-[(5S)-5-(3,5-dichloro-4-fluoro-phenyl)-5-(trifluoromethyl)-4H-isoxazol-3-yl]-N-(2-methylsulfonylisoxazolidin-4-yl)benzamide]
≥ 80%: percent effect (mortality or growth inhibition) at 200 ppm [1] | percent effect (mortality or growth inhibition) at 200 ppm [2] | mortality at 200 ppm [3] | percent effect (mortality or growth inhibition) at 200 ppm [4] | mortality at 200 ppm [5] | percent control (mortality, anti-feedant effect or growth inhibition) at 12.5 ppm [6] | mortality at 200 ppm [7] | mortality at 200 ppm [8]

Cc1cc(C2=NO[C@@](c3cc(Cl)cc(C(F)(F)F)c3)(C(F)(F)F)C2)ccc1C(=O)NC1CON(S(C)(=O)=O)C1 (stereo partly shown) [Compound A20]
≥ 80%: percent effect (mortality or growth inhibition) at 200 ppm [1] | percent effect (mortality or growth inhibition) at 200 ppm [2] | mortality at 200 ppm [3] | percent effect (mortality or growth inhibition) at 200 ppm [4] | mortality at 200 ppm [5] | percent control (mortality, anti-feedant effect or growth inhibition) at 12.5 ppm [6] | mortality at 200 ppm [7] | mortality at 200 ppm [8]

CCS(=O)(=O)N1CC(NC(=O)c2ccc(C3=NO[C@@](c4cc(Cl)c(Cl)c(Cl)c4)(C(F)(F)F)C3)cc2C)CO1 (stereo partly drawn) [Compound A27, N-(2-ethylsulfonylisoxazolidin-4-yl)-2-methyl-4-[(5S)-5-(3,4,5-trichlorophenyl)-5-(trifluoromethyl)-4H-isoxazol-3-yl]benzamide]
≥ 80%: percent effect (mortality or growth inhibition) at 200 ppm [1] | percent effect (mortality or growth inhibition) at 200 ppm [2] | mortality at 200 ppm [3] | percent effect (mortality or growth inhibition) at 200 ppm [4] | mortality at 200 ppm [5] | percent control (mortality, anti-feedant effect or growth inhibition) at 12.5 ppm [6] | mortality at 200 ppm [7] | mortality at 200 ppm [8]

Cc1cc(C2=NOC(c3cc(Cl)cc(Cl)c3)(C(F)(F)F)C2)ccc1C(=O)NC1CON(S(C)(=O)=O)C1 (stereo not shown) [Compound A33, 4-[5-(3,5-dichlorophenyl)-5-(trifluoromethyl)-4H-isoxazol-3-yl]-2-methyl-N-(2-methylsulfonylisoxazolidin-4-yl)benzamide]
≥ 80%: percent effect (mortality or growth inhibition) at 200 ppm [1] | percent effect (mortality or growth inhibition) at 200 ppm [2] | mortality at 200 ppm [3] | percent effect (mortality or growth inhibition) at 200 ppm [4] | mortality at 200 ppm [5] | percent control (mortality, anti-feedant effect or growth inhibition) at 12.5 ppm [6] | mortality at 200 ppm [7] | mortality at 200 ppm [8]

Cc1cc(C2=NO[C@@](c3cc(Cl)c(Cl)c(Cl)c3)(C(F)(F)F)C2)ccc1C(=O)NC1CON(S(N)(=O)=O)C1 (stereo partly shown) [Compound A35]
≥ 80%: percent effect (mortality or growth inhibition) at 200 ppm [1] | percent effect (mortality or growth inhibition) at 200 ppm [2] | mortality at 200 ppm [3] | percent effect (mortality or growth inhibition) at 200 ppm [4] | mortality at 200 ppm [5] | percent control (mortality, anti-feedant effect or growth inhibition) at 12.5 ppm [6] | mortality at 200 ppm [7] | mortality at 200 ppm [8]
